# In PMC7168207, “Dibasic Derivatives of Phenylcarbamic Acid as Prospective Antibacterial Agents Interacting with Cytoplasmic Membrane” (Antibiotics, 2020):
# “And” between values parts separate entries of the source, which are not always exact repeats. Identical values can stand only once. Like-named read-outs stand apart in the source and are kept apart here. Marks after values point to notes of the source that are not given here.
# Experiments:
# [1] = parameters: method as in PMID 30274224; conditions: cited from earlier work
# [2] = test system: S. aureus ATCC 29213 biofilm; experiment: biofilm susceptibility / eradication of preformed biofilm (MTT); assay type: cell-based, Staphylococcus aureus; conditions: for MBEC80 (minimum biofilm eradication concentration): 80% reduction of metabolic activity of preformed biofilm, 24 h
# Protocol: The ability of compounds 1f, 1g, and 1h to inhibit biofilm growth and destroy the matured biofilm of S. aureus ATCC 29213 was investigated. The inhibitory activity was studied by the method with crystal violet. The activity to disrupt matured biofilm was evaluated as a decrease of metabolic activity using the MTT assay.
# Biofilms were grown as described above but without the presence of the compounds. After 48 h of incubation at 37 °C, the contents of the wells were removed, and the plates were washed three times by sterile PBS. After washing, 100 µL of tested compounds in CaMH were added to the wells. […] A growth control containing 2.5% of DMSO in CaMH was included. The plates were incubated at 37 °C for 24 h, then the solutions of compounds were removed, and the plates were gently washed three times by sterile PBS. Bacterial viability was analyzed using 100 µL of 0.05 mg/mL MTT (3-(4,5-dimethylthiazol-2-yl)- 2,5-diphenyltetrazolium bromide) in PBS in each well. The plates with MTT were incubated at 37 °C for 1–2 h in darkness, until the blue formazan crystals appeared. MTT solution was removed and the plates were washed once by PBS. Crystals of formazan were dissolved using 17% sodium dodecysulphate in 40% dimethylformamid. The absorbance at 570 nm was measured and the percentage of eradication was counted according to the equation (3) % of eradication = 100 − OD570S/OD570C × 100 where OD570S is the absorbance of the sample at 570 nm and OD570C is the absorbance of the growth control at 570 nm. The minimum biofilm eradication concentration was the lowest concentration of the compound, which reduced the metabolic activity of the biofilm by 80% compared to the growth control. The experiment was made in duplicate and repeated at least three times.
# MRSA 63718 = experiment: time-kill study; assay type: cell-based, Staphylococcus aureus; conditions: MRSA1
# Excerpt: (§1) Time-kill studies are used to evaluate the dynamics of antibacterial activity. As mentioned above, a pre-test to determine minimum bactericidal concentration (MBC) by sub-cultivation of aliquots on agar was made (see Section 3.4). […] Time-kill studies were made with methicillin-susceptible S. aureus ATCC 29213 and methicillin-resistant MRSA 63718, vancomycin-susceptible E. faecalis ATCC 29212, and all three VRE isolates. Vancomycin was used as a control (Table 6).
# (§2) The method of time-kill curves was used to study the bactericidal effect of selected compounds. […] The experiment was performed with S. aureus ATCC 29213, MRSA 63718, E. faecalis ATCC 29212, and all VRE isolates. […] The tubes were inoculated by bacterial inoculum in the exponential phase of growth to get a final concentration of 7.5 × 10^6 CFU/mL. The tubes were incubated statically at 37 °C. Immediately after inoculation and after 4, 6, 8, and 24 h, 100 µL of the sample was serially diluted (1:10) in PBS. Then, 2 × 20 µL from each dilution were put onto a Mueller–Hinton agar plate and cultivated at 37 °C for 24 h. After incubation, CFUs of dilutions containing 5–50 colonies were counted. Results were expressed as a decrease of log10(CFU) in each time compared to the starting inoculum. Bactericidal effect is defined as a −3log decrease of CFU/mL compared to the growth control in time 0. The test was made in duplicate on two separate occasions, and the results were averaged. The growth curves with error bars are shown in Figures S1 and S2 in Supplementary Materials.
# S. aureus ATCC 29213 = experiment: time-kill study; assay type: cell-based, Staphylococcus aureus; conditions: SA
# Excerpt: as §1, §2
# VRE 368 = experiment: synergy with antibiotics (FIC index, checkerboard); assay type: cell-based, Enterococcus faecalis; conditions: for MIC: Enterococcus, VRE, read-out: MIC of each antibacterial drug alone observed in the synergy experiment; for concentrations of the tested compound/clinically used antibiotic providing additivity or synergy: in the combination of that line
# Excerpt: (§3) Representatives from various classes were chosen in order to study the potential difference in synergistic activity according to the diverse mechanisms of action and resistance of these drugs. The method of minimal fractional inhibitory concentration (FIC) index (FICI) in a microtitration plate was used. FICI ≤ 0.5 means synergy; 0.5 < FICI < 1 means additivity; 1 ≤ FICI < 4 means indifference; and FICI ≥ 4 means antagonism.
# (§4) For synergy effect study, a method of fractional inhibitory concentration was used. […] Raw H was used for the evaluation of MIC(A); column 12 was used for evaluation of MIC(B). The plate was inoculated by the bacterial suspension to reach final concentration of 5 × 10^5 CFU/mL in the wells. The fractional inhibitory concentration (FIC) index was calculated using the concentrations in the first nonturbid (clear) well found in each row and column along the turbidity/nonturbidity interface. To interpret the combined effect, the lowest FICI was used. A ΣFIC ≤ 0.5 means synergy; 0.5 < ΣFIC < 1 means additivity; 1 ≤ ΣFIC < 4 means indifference; and ΣFIC ≥ 4 means antagonism. The tests were made in duplicate, and the results were averaged.
# VRE 342B = experiment: synergy with antibiotics (FIC index, checkerboard); assay type: cell-based, Enterococcus faecalis; conditions: for MIC: Enterococcus, read-out: MIC of each antibacterial drug alone observed in the synergy experiment; for concentrations of the tested compound/clinically used antibiotic providing additivity or synergy: in the combination of that line
# Excerpt: as §3, §4
# [3] = VRE 368, tested compound/antibiotic
# [4] = VRE 342B, tested compound/antibiotic
SMILES,"γ (surface tension, relative surface activity) [1] [N/m]",MBEC80 (minimum biofilm eradication concentration) [2] [µg/mL],"Log10 Difference in CFU/mL from Inoculum (MRSA 63718; 1 × MIC, 4 h)","Log10 Difference in CFU/mL from Inoculum (MRSA 63718; 1 × MIC, 6 h) [log10 CFU/mL]","Log10 Difference in CFU/mL from Inoculum (MRSA 63718; 1 × MIC, 8 h) [log10 CFU/mL]","Log10 Difference in CFU/mL from Inoculum (MRSA 63718; 1 × MIC, 24 h) [log10 CFU/mL]","Log10 Difference in CFU/mL from Inoculum (MRSA 63718; 2 × MIC, 4 h)","Log10 Difference in CFU/mL from Inoculum (MRSA 63718; 2 × MIC, 6 h)","Log10 Difference in CFU/mL from Inoculum (MRSA 63718; 2 × MIC, 8 h) [log10 CFU/mL]","Log10 Difference in CFU/mL from Inoculum (MRSA 63718; 2 × MIC, 24 h) [log10 CFU/mL]","Log10 Difference in CFU/mL from Inoculum (MRSA 63718; 4 × MIC, 4 h)","Log10 Difference in CFU/mL from Inoculum (MRSA 63718; 4 × MIC, 6 h)","Log10 Difference in CFU/mL from Inoculum (MRSA 63718; 4 × MIC, 8 h)","Log10 Difference in CFU/mL from Inoculum (MRSA 63718; 4 × MIC, 24 h) [log10 CFU/mL]","Log10 Difference in CFU/mL from Inoculum (S. aureus ATCC 29213; 1 × MIC, 4 h) [log10 CFU/mL]","Log10 Difference in CFU/mL from Inoculum (S. aureus ATCC 29213; 1 × MIC, 6 h) [log10 CFU/mL]","Log10 Difference in CFU/mL from Inoculum (S. aureus ATCC 29213; 1 × MIC, 8 h) [log10 CFU/mL]","Log10 Difference in CFU/mL from Inoculum (S. aureus ATCC 29213; 1 × MIC, 24 h) [log10 CFU/mL]","Log10 Difference in CFU/mL from Inoculum (S. aureus ATCC 29213; 2 × MIC, 4 h) [log10 CFU/mL]","Log10 Difference in CFU/mL from Inoculum (S. aureus ATCC 29213; 2 × MIC, 6 h) [log10 CFU/mL]",other results
"CCCCCOc1cccc(NC(=O)OC(CN(CCC)CCC)CN2CCCC2)c1.Cl.Cl (stereo not drawn) [1f, 1-[3-(dipropylammonio)-2-({[3-(pentyloxy)phenyl]carbamoyl}-oxy)propyl]pyrrolidinium dichloride]",0.06285,64,–,–,–,–,–,–,–,–,–,–,–,–,–,–,–,–,–,–,–
"CCCCCCOc1cccc(NC(=O)OC(CN(CCC)CCC)CN2CCCC2)c1.Cl.Cl (stereo not drawn) [1g, 1-[3-(dipropylammonio)-2-({[3-(hexyloxy)phenyl]carbamoyl}oxy)propyl]pyrrolidinium dichloride]",0.06105,16,0.00 log10 CFU/mL,0.66,1.00,1.99,−1.33 log10 CFU/mL,−0.93 log10 CFU/mL,−0.26,1.29,−2.57 * log10 CFU/mL,−1.99 * log10 CFU/mL,−1.26 * log10 CFU/mL,1.21,1.54,1.98,2.33,2.74,0.87,0.98,"Log10 Difference in CFU/mL from Inoculum (S. aureus ATCC 29213; 2 × MIC, 8 h): 1.26 log10 CFU/mL; Log10 Difference in CFU/mL from Inoculum (S. aureus ATCC 29213; 2 × MIC, 24 h): 2.24 log10 CFU/mL; Log10 Difference in CFU/mL from Inoculum (S. aureus ATCC 29213; 4 × MIC, 4 h): −0.26 log10 CFU/mL; Log10 Difference in CFU/mL from Inoculum (S. aureus ATCC 29213; 4 × MIC, 6 h): −0.04 log10 CFU/mL; Log10 Difference in CFU/mL from Inoculum (S. aureus ATCC 29213; 4 × MIC, 8 h): 0.10 log10 CFU/mL; Log10 Difference in CFU/mL from Inoculum (S. aureus ATCC 29213; 4 × MIC, 24 h): 1.85 log10 CFU/mL; MIC (VRE 368; [3]): 8 µg/mL; concentrations of the tested compound/clinically used antibiotic providing additivity or synergy (VRE 368; VRE 368): 4 µg/mL; MIC (VRE 342B; [4]): 8 µg/mL; concentrations of the tested compound/clinically used antibiotic providing additivity or synergy (VRE 342B; VRE 342B): 4 µg/mL"
"CCCCCCCOc1cccc(NC(=O)OC(CN(CCC)CCC)CN2CCCC2)c1.Cl.Cl (stereo not drawn) [1h, 1-[3-(Dipropylammonio)-2-({[3-(heptyloxy)phenyl]carbamoyl}oxy)propyl]pyrrolidinium dichloride]",0.05786,16,−0.73 * log10 CFU/mL,−0.11,0.98,1.58,−0.92 * log10 CFU/mL,−0.42 * log10 CFU/mL,−0.13,1.62,−2.48 * log10 CFU/mL,−2.40 * log10 CFU/mL,−2.08 * log10 CFU/mL,1.35,0.08,0.31,0.50,2.07,0.05,0.10,"Log10 Difference in CFU/mL from Inoculum (S. aureus ATCC 29213; 2 × MIC, 8 h): 0.05 log10 CFU/mL; Log10 Difference in CFU/mL from Inoculum (S. aureus ATCC 29213; 2 × MIC, 24 h): 2.01 log10 CFU/mL; Log10 Difference in CFU/mL from Inoculum (S. aureus ATCC 29213; 4 × MIC, 4 h): −0.25 log10 CFU/mL; Log10 Difference in CFU/mL from Inoculum (S. aureus ATCC 29213; 4 × MIC, 6 h): −0.13 log10 CFU/mL; Log10 Difference in CFU/mL from Inoculum (S. aureus ATCC 29213; 4 × MIC, 8 h): −0.08 log10 CFU/mL; Log10 Difference in CFU/mL from Inoculum (S. aureus ATCC 29213; 4 × MIC, 24 h): 1.93 log10 CFU/mL; MIC (VRE 368; [3]): 4 µg/mL; MIC (VRE 342B; [4]): 8 µg/mL; concentrations of the tested compound/clinically used antibiotic providing additivity or synergy (VRE 342B; VRE 342B): 2 µg/mL; concentration giving 80% degradation of preformed biofilm relative to MIC [2]: two-fold"
"CN[C@H](CC(C)C)C(=O)N[C@H]1C(=O)N[C@@H](CC(N)=O)C(=O)N[C@H]2C(=O)N[C@H]3C(=O)N[C@H](C(=O)N[C@H](C(=O)O)c4cc(O)cc(O)c4-c4cc3ccc4O)[C@H](O)c3ccc(c(Cl)c3)Oc3cc2cc(c3O[C@@H]2O[C@H](CO)[C@@H](O)[C@H](O)[C@H]2O[C@H]2C[C@](C)(N)[C@H](O)[C@H](C)O2)Oc2ccc(cc2Cl)[C@H]1O [VAN, vancomycin, reference compound]",–,–,−1.00 log10 CFU/mL,−1.50,−1.76,0.55,−0.91 log10 CFU/mL,−1.43 log10 CFU/mL,−1.97,−5.18,−1.31 log10 CFU/mL,−1.75 log10 CFU/mL,−3.89 log10 CFU/mL,−5.19,−0.37,−0.65,−0.84,2.90,−0.26,−0.59,"Log10 Difference in CFU/mL from Inoculum (S. aureus ATCC 29213; 2 × MIC, 8 h): −1.12 log10 CFU/mL; Log10 Difference in CFU/mL from Inoculum (S. aureus ATCC 29213; 2 × MIC, 24 h): −3.67 log10 CFU/mL; Log10 Difference in CFU/mL from Inoculum (S. aureus ATCC 29213; 4 × MIC, 4 h): −0.27 log10 CFU/mL; Log10 Difference in CFU/mL from Inoculum (S. aureus ATCC 29213; 4 × MIC, 6 h): −0.38 log10 CFU/mL; Log10 Difference in CFU/mL from Inoculum (S. aureus ATCC 29213; 4 × MIC, 8 h): −1.18 log10 CFU/mL; Log10 Difference in CFU/mL from Inoculum (S. aureus ATCC 29213; 4 × MIC, 24 h): −5.47 log10 CFU/mL; MIC (VRE 368): 512 µg/mL; concentrations of the tested compound/clinically used antibiotic providing additivity or synergy (VRE 368; VRE 368): 128 µg/mL; MIC (VRE 342B; VRE): 1020 µg/mL; concentrations of the tested compound/clinically used antibiotic providing additivity or synergy (VRE 342B; VRE 342B): 128 µg/mL and 256 µg/mL"
